Here are results for 15 molecules from patent US8143031B2, “Production of N-acylated sulphur-containing amino acids with microorganisms having enhanced N-acyltransferase enzymatic activity” (Metabolic Explorer, priority 2008, dated 2012).

Data set [1] addresses T1, YncA (Escherichia coli, UniProt P76112).
T1 construct: The purified protein was identified as YncA, a GCN5 related acyl transferase; made in house; host or cells: Untagged endogenous activity purified chromatographically from broken cells; E. coli is inferred
The experiment in a line: DTNB-based substrate and acyl-donor specificity test of YncA. The data set is classed as biochemical, E. coli. The settings on record: for % Activity (activity of YncA with respect to the co-substrate Acetyl-coA): Acetyl-coA = 100; for % Activity (activity with respect to the substrate methionine): methionine = 100; for Activity as substrate of YncA (in words): DTNB-based assay. How it is done: (§1) Methionine L-amino-acid-N-acyl transferase activity was followed in microtiter plates by monitoring the apparition of HS-CoA with DTNB. The reaction solution, to which the sample was added, contained 200 mM Tris-HCl, pH 9.0, […], 3 mM Acetyl-coA and 20 mM methionine. Formation of the DTNB-CoA complex was monitored at 408 nm using a μQuant microtiter plate reader (BioTek Instruments, Inc., USA).
The substrate specificity was tested using the DTNB-based assay (see above).

Data set [2] has as its target Pseudomonas PA4866 protein (Pseudomonas aeruginosa, UniProt Q9HUU7). The settings on record: cited from earlier work.
The conditions of data set [3]: compared with the L-isomer; cited from earlier work.
The conditions of data set [4]: compared with pure methionine; cited from earlier work.
The nature of data set [5]: MNAT activity test in vitro of purification fractions (DTNB, acetyl-coA, methionine). The settings on record: purification steps. It is filed as biochemical, E. coli. The procedure: as §1
˜3 g of dry weight cells were rinsed 3 times with extraction buffer (EB) (50 mM phosphate, pH 7.0, 50 μM PLP, 500 μM DTT) and suspended in 70 mL EB. Cells were broken by sonication using a Rosett cell with a Bandelin Sonoplus ultrasonic homogenizer (Bandelin Electronic, Germany) equipped with a UW2070 probe and a SH70G tip (6 burst, 30 s, 100% efficiency, 75 W). The crude extract was centrifuged (30 min, 12.000 g, 4° C.) and solid ammonium sulfate was added to the supernatant to a final concentration of 2.3 M, and incubated on ice for 30 min. The solution was centrifuged (15 min, 15.000 g, 4° C.) and the pellet suspended in 40 mL phosphate buffer (50 mM phosphate, pH 7.0). Solid ammonium sulfate was added to a final concentration of 1.5 M, and the solution was incubated on ice for 30 min and then centrifuged (15 min, 15.000 g, 4 C). […]

Setting [6] is: methionine as substrate, various acyl-donors.
Where [7] appears, read: Acetyl-coA as acyl-donor, various substrates.

Pseudomonas PA4866 protein, sequence (Q9HUU7 whole entry): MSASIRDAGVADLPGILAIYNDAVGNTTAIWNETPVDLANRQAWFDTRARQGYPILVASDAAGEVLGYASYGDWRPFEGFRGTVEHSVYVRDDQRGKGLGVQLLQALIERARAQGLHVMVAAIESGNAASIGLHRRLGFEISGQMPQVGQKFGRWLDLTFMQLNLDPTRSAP

For the molecule `CC(=O)SCCNC(=O)CCNC(=O)[C@H](O)C(C)(C)COP(=O)(O)OP(=O)(O)OC[C@H]1O[C@@H](n2cnc3c(N)ncnc32)[C@H](O)[C@@H]1OP(=O)(O)O` [Acetyl-coA], in data set [1] (methionine as substrate), the “Activity as acyl-donor of YncA (in words)” value (“Activity as acyl-donor” for short) was “worked properly as an acyl donor” and the “% Activity (activity of YncA with respect to the co-substrate Acetyl-coA)” value is listed as 100%. Moreover, in data set [1] (setting [6]), the “Specific Activity” value worked out at 745 mUI/mg protein.

Take `NC(=O)C[C@H](N)C(=O)O` [Asparagine]: in data set [1] (Acetyl-coA as acyl-donor), the “% Activity (activity with respect to the substrate methionine)” value amounted to 2.4%. For the same molecule, in data set [1] (setting [7]), the “Specific Activity” value was determined as 18 mUI/mg protein. Besides, the “Activity as substrate of YncA (in words)” value in data set [1] is “Weak activities”.

On to `N[C@@H](CC(=O)O)C(=O)O` [Aspartate], for which the “% Activity (activity with respect to the substrate methionine)” value in data set [1] (Acetyl-coA as acyl-donor) was determined as 1%.

For the molecule `CCCC(=O)SCCNC(=O)CCNC(=O)[C@H](O)C(C)(C)COP(=O)(O)OP(=O)(O)OC[C@H]1O[C@@H](n2cnc3c(N)ncnc32)[C@H](O)[C@@H]1OP(=O)(O)O` [Butyryl-coA], in data set [1] (methionine as substrate), the “Activity as acyl-donor” value is reported as “weak activities” and the “% Activity (activity of YncA with respect to the co-substrate Acetyl-coA)” value worked out at 17%. For the same molecule, the “Specific Activity” value in data set [1] (setting [6]) is recorded as 129 mUI/mg protein.

Turning to `N[C@@H](CCC(=O)O)C(=O)O` [Glutamate], in data set [1] (Acetyl-coA as acyl-donor), the “% Activity (activity with respect to the substrate methionine)” value amounted to 0.6%. In addition, in data set [1] (setting [7]), the “Specific Activity” value worked out at 4 mUI/mg protein. The “Activity as substrate of YncA (in words)” value in data set [1] is “Weak activities”.

Regarding `NC(=O)CC[C@H](N)C(=O)O` [Glutamine], the “% Activity (activity with respect to the substrate methionine)” value in data set [1] (Acetyl-coA as acyl-donor) is recorded as 1.4%. Also, the “Specific Activity” value in data set [1] (setting [7]) was 10 mUI/mg protein. The “Activity as substrate of YncA (in words)” value in data set [1] is “Weak activities”.

For the molecule `NCCCC[C@H](N)C(=O)O` [Lysine], in data set [1] (Acetyl-coA as acyl-donor), the “% Activity (activity with respect to the substrate methionine)” value is 1.6%. Also, the “Specific Activity” value in data set [1] (setting [7]) was 12 mUI/mg protein. The “Activity as substrate of YncA (in words)” value in data set [1] was “Weak activities”.

With `CS(=O)(=O)CC[C@H](N)C(=O)O` [Methionine sulfone], the “% Activity (activity with respect to the substrate methionine)” value in data set [1] (Acetyl-coA as acyl-donor) was 178.8%. For the same molecule, in data set [1] (setting [7]), the “Specific Activity” value was 1332 mUI/mg protein. Besides, the “Activity as substrate of YncA (in words)” value in data set [1] is recorded as “Strong activities”.

On to `C[S+]([O-])CC[C@H](N)C(=O)O` (stereo partly drawn) [Methionine sulfoxide], for which the “% Activity (activity with respect to the substrate methionine)” value in data set [1] (Acetyl-coA as acyl-donor) is 147.6%. Further, the “Specific Activity” value in data set [1] (setting [7]) is 1100 mUI/mg protein. In addition, the “Activity as substrate of YncA (in words)” value in data set [1] is “Strong activities”.

Take `CS(=N)(=O)CC[C@H](N)C(=O)O` (stereo partly drawn) [Methionine sulfoximine]: in data set [1] (Acetyl-coA as acyl-donor), the “% Activity (activity with respect to the substrate methionine)” value was determined as 166.9%. The “Specific Activity” value in data set [1] (setting [7]) came out at 1243 mUI/mg protein. Moreover, the “Activity as substrate of YncA (in words)” value in data set [1] is reported as “Strong activities”.

On to `CSCC[C@H](N)C(=O)O` [Methionine], for which the “% Activity (activity with respect to the substrate methionine)” value in data set [1] (Acetyl-coA as acyl-donor) was found to be 100%. The “Specific Activity” value in data set [1] (setting [7]) was 745 mUI/mg protein. Also, the “Activity as substrate of YncA (in words)” value in data set [1] is “Strong activities”. Also, the “Acetylation by Pseudomonas PA4866 protein” value in data set [2] was “did not acetylate”.

For the molecule `CSCC[C@@H](NC(C)=O)C(=O)O` [N-acetyl-D-methionine], the Incorporation by animals result in data set [3] is listed as “not incorporated as well as its L-isomer”.

For `CSCC[C@H](NC(C)=O)C(=O)O` [NAM, N-acetyl-L-methionine], the Methionine-sparing value result in data set [4] is given as “same methionine-sparing value as pure methionine”.

As to `CCC(=O)SCCNC(=O)CCNC(=O)[C@H](O)C(C)(C)COP(=O)(O)OP(=O)(O)OC[C@H]1O[C@@H](n2cnc3c(N)ncnc32)[C@H](O)[C@@H]1OP(=O)(O)O` [Propionyl-coA], in data set [1] (methionine as substrate), the “Activity as acyl-donor” value was “preferred acyl-donor” and the “% Activity (activity of YncA with respect to the co-substrate Acetyl-coA)” value worked out at 140%. For the same molecule, the “Specific Activity” value in data set [1] (setting [6]) was 1039 mUI/mg protein.

B1: Purified Protein: Purified methionine N-acyl transferase from E. coli, identified as YncA, a GCN5 related acyl transferase, SEQ ID NO: 1 (protein, listed as Escherichia coli)
chain: MSIRFARKADCAAIAEIYNHAVLYTAAIWNDQTVDADNRIAWFEARTLAGYPVLVSEENGVVTGYASFGDWRSFDGFRHTVEHSVYVHPDHQGKGLGRKLLSRLIDEARDCGKHVMVAGIESQNQASLHLHQSLGFVVTAQMPQVGTKFGRWLDLTFMQLQLDERTEPDAIG
In the case of B1, the “Specific Activity” value in data set [5] (methionine N-acyl transferase activity) is 19689 mUI/mg prot. In addition, the Activity in data set [5] (total methionine N-acyl transferase activity) is 0.126 UI.
